Laboratory results as given in PubChem BioAssay AID256 (DTP/NCI, 2004).
Where “and” joins values, the source holds several entries; their conditions need not be identical. Equal entries are not always repeated. Inconclusive results and toxic doses are left out. Rule for the calls: active = survival T/C of 150% or more; inactive = T/C below 125% in these data.

Test system: CD2F1 mice, L1210 leukemia ip, survival T/C
Assay: NCI In Vivo Anticancer Drug Screen. Data for tumor model L1210 Leukemia (intraperitoneal) in CD2F1 (CDF1) mice
Details: endpoint: mean survival time, higher = longer survival
How it was run: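 Read-out first: treated-group measurement over vehicle-control measurement, expressed as a ratio. Animals bore a transplanted tumor line and were dosed with compound or vehicle.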

[1] = dose: 100.0 mg/kg/injection, schedule: Q04DX003 (ip), vehicle: saline with Tween-80
[2] = dose: 200.0 mg/kg/injection, schedule: Q04DX003 (ip), vehicle: saline with Tween-80
[3] = dose: 400.0 mg/kg/injection, schedule: Q04DX003 (ip), vehicle: saline with Tween-80
[4] = dose: 100.0 mg/kg/injection, schedule: Q01DX009 (ip), vehicle: saline with Tween-80
[5] = dose: 200.0 mg/kg/injection, schedule: Q01DX009 (ip), vehicle: saline with Tween-80
[6] = dose: 50.0 mg/kg/injection, schedule: Q01DX009 (ip), vehicle: saline with Tween-80
[7] = dose: 100.0 mg/kg/injection, schedule: Q04DX002 (ip), vehicle: saline with Tween-80
[8] = dose: 200.0 mg/kg/injection, schedule: Q04DX002 (ip), vehicle: saline with Tween-80
[9] = dose: 400.0 mg/kg/injection, schedule: Q04DX002 (ip), vehicle: saline with Tween-80

Measured: T/C

C=C(Br)CSC#N
inactive: [1] 96 % of control | [2] 112 % of control | [3] 96 % of control

CN(C)C(=O)C(=O)C1C=Cc2ccccc21 (stereo unspecified)
inactive: [4] 98 % of control | [5] 103 % of control | dose: 400.0 mg/kg/injection, schedule: Q01DX009 (ip), vehicle: saline with Tween-80 93 % of control

CCCOS(=O)(=O)c1ccc(Cl)c([N+](=O)[O-])c1
inactive: [6] 97 % of control | [4] 90 % of control | [1] 94 % of control | [2] 89 % of control

O=C(COc1ccc(Cl)c(Cl)c1)Nc1ccc[n+](Cc2cccc(Cl)c2S(=O)(=O)F)c1
inactive: [1] 97 % of control | [2] 105 % of control

O=C1C=CC(=O)c2c(O)cccc21
inactive: dose: 3.13 mg/kg/injection, schedule: Q01DX009 (ip), vehicle: saline with Tween-80 94 % of control | dose: 6.25 mg/kg/injection, schedule: Q01DX009 (ip), vehicle: saline with Tween-80 92 % of control | dose: 12.5 mg/kg/injection, schedule: Q04DX003 (ip), vehicle: saline with Tween-80 88 % of control

CC(=O)Nc1cccc2ccc3c4ccccc4ccc3c12
inactive: [1] 86 % of control | [2] 89 % of control | [3] 98 % of control

COc1cc2c(cc1OC)-c1nc(N)sc1CC2
inactive: [7] 107 % of control | [8] 98 % of control | [9] 103 % of control

O=C(CBr)Nc1ccc2[nH]c3cnccc3c2c1
inactive: [7] 101 % of control | [8] 104 % of control | [9] 97 % of control

Nc1ncnc2cc3ncn(C4OC(CO)C(O)C4O)c3cc12 (stereo unspecified)
inactive: dose: 12.5 mg/kg/injection, schedule: Q01DX005 (ip), vehicle: water 100 % of control | dose: 25.0 mg/kg/injection, schedule: Q01DX005 (ip), vehicle: water 104 % of control | dose: 50.0 mg/kg/injection, schedule: Q01DX005 (ip), vehicle: water 106 % of control | dose: 100.0 mg/kg/injection, schedule: Q01DX005 (ip), vehicle: water 100 % of control | dose: 200.0 mg/kg/injection, schedule: Q01DX005 (ip), vehicle: water 100 % of control

O=C(O)c1cc(-c2ccccc2)nc2ccccc12
inactive: dose: 100.0 mg/kg/injection, schedule: Q01DX001 (ip), vehicle: saline with Tween-80 103 % of control | dose: 200.0 mg/kg/injection, schedule: Q01DX001 (ip), vehicle: saline with Tween-80 97 % of control | dose: 400.0 mg/kg/injection, schedule: Q01DX001 (ip), vehicle: saline with Tween-80 102 % of control

[O]=[Nb]
inactive: dose: 5.0 mg/kg/injection, schedule: Q04DX003 (ip), vehicle: saline 102 % of control | dose: 10.0 mg/kg/injection, schedule: Q04DX003 (ip), vehicle: saline 98 % of control

COc1cc2c(cc1OC)C(C)=NCC2
inactive: dose: 100.0 mg/kg/injection, schedule: Q04DX003 (ip), vehicle: saline 104 % of control

Cc1ccc(NC(=O)Oc2ccccc2F)cc1C
inactive: [6] 100 % of control | [4] 87 % of control | [5] 104 % of control

c1ccc(Cc2ccccn2)cc1
inactive: dose: 100.0 mg/kg/injection, schedule: Q04DX003 (ip), vehicle: water 93 % of control | dose: 200.0 mg/kg/injection, schedule: Q04DX003 (ip), vehicle: water 101 % of control | dose: 400.0 mg/kg/injection, schedule: Q04DX003 (ip), vehicle: water 104 % of control

Cc1ccc(S(=O)(=O)OC2CCCCCCCCCCC2=O)cc1 (stereo unspecified)
inactive: dose: 50.0 mg/kg/injection, schedule: Q04DX003 (ip), vehicle: other 97 % of control | dose: 100.0 mg/kg/injection, schedule: Q04DX003 (ip), vehicle: other 93 % of control and 95 % of control | dose: 200.0 mg/kg/injection, schedule: Q04DX003 (ip), vehicle: other 93 % of control | dose: 400.0 mg/kg/injection, schedule: Q04DX003 (ip), vehicle: other 95 % of control

CCCCCCCCCCCCCCCC(=O)N1CC[N+](C)(CC2=CC3(Cl)C(Cl)=C(Cl)C2(Cl)C3(Cl)Cl)CC1 (stereo unspecified)
inactive: dose: 75.0 mg/kg/injection, schedule: Q01DX001 (ip), vehicle: saline 93 % of control | dose: 150.0 mg/kg/injection, schedule: Q01DX001 (ip), vehicle: saline 100 % of control

NC(=O)C(Br)Cc1cccc(Cl)c1 (stereo unspecified)
inactive: dose: 50.0 mg/kg/injection, schedule: Q01DX001 (ip), vehicle: saline 102 % of control | dose: 100.0 mg/kg/injection, schedule: Q01DX001 (ip), vehicle: saline 100 % of control | dose: 200.0 mg/kg/injection, schedule: Q01DX001 (ip), vehicle: saline 100 % of control | dose: 400.0 mg/kg/injection, schedule: Q01DX001 (ip), vehicle: saline 100 % of control
